According to publication PMC6751662, “Pharmacological and functional similarities of the human neuropeptide Y system in C. elegans challenges phylogenetic views on the FLP/NPR system” (Cell Communication and Signaling : CCS, 2019):
Ends that are not written are not given here.

Key:
Type in all cases: cell-based, C. elegans
NPR-3 = target: T1, NPR-3 (Caenorhabditis elegans, UniProt P90745); experiment: cAMP reporter gene assay, Gi/o (inhibition of forskolin-induced cAMP), NPR-3; conditions: for cAMP, x-fold of forskolin (mean), NPR-3: 1 µM forskolin set to 1.00, transiently transfected HEK293 cells, mean of at least three independent experiments; for cAMP assay Gi, NPR-3: 4 h, lower = higher Gi/o activity, transfected HEK293, CRE-luciferase, mean of >=3 independent experiments
T1 construct: expressed in transfected cells; host or cells: HEK293
T1 sequence (P90745 1-376): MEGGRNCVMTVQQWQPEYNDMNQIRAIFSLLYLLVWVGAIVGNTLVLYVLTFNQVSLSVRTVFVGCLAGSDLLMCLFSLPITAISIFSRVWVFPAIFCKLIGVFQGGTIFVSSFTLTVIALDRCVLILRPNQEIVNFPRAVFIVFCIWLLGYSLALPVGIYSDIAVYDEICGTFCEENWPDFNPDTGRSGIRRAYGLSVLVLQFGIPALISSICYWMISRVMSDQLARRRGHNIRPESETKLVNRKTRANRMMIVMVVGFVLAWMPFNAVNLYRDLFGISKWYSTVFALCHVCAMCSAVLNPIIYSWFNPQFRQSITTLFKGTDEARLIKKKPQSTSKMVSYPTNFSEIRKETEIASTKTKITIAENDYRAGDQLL
Procedure: (§1) Activation of Gs and Gi/o was assessed with a cAMP reporter gene assay. HEK293 cells grown to 70–80% confluency in 6-well plates were transiently co-transfected with vectors encoding the receptor and the cAMP reporter gene plasmid pGL4.29 [luc2P/CRE/Hygro] (Promega; 4 μg total, 1:1 ratio) using Metafectene Pro (3 μl/μg DNA; Biontex) following the manufacturer’s instructions. 16 h post transfection, the cells were seeded into white 384-well plates at a density of 20,000 cells/well. On the next day, the medium was removed and the cells were stimulated with 20 μl of peptide solution (or forskolin as positive control) in serum-free DMEM for 4 h. For measuring Gi/o activity, the peptide solutions additionally contained 1 μM forskolin to elevate cellular cAMP levels. After incubation, the luciferase substrate OneGlo in lysis buffer (Promega) was added and the luminescence was measured in a microplate reader Tecan Spark (Tecan). Data were analyzed with GraphPad Prism 5.03 and are shown as fold of basal or fold of forskolin in case of Gαi/o activity.
(§2) For in vitro activation, data is presented as mean ± SEM of at least three independent experiments conducted in technical triplicate. […] For the C. elegans NPRs, we considered the strongest response elicited by any of the peptides downstream of a particular receptor as the receptor’s maximal signal. This may or may not be the biological maximum that can be reached by the ‘true’ endogenous agonist. For the human receptors, the response to the established endogenous agonist reflected the maximal signal.

NPR-4b = target: T2, NPR-4b (Caenorhabditis elegans, UniProt A0A078BTK0); experiment: cAMP reporter gene assay, Gi/o (inhibition of forskolin-induced cAMP), NPR-4b; conditions: for cAMP, x-fold of forskolin (mean), NPR-4b: 1 µM forskolin set to 1.00, mean of at least three independent experiments; for cAMP assay Gi, NPR-4b: 4 h, lower = higher Gi/o activity, transfected HEK293, CRE-luciferase, mean of >=3 independent experiments
T2 sequence (A0A078BTK0 1-376): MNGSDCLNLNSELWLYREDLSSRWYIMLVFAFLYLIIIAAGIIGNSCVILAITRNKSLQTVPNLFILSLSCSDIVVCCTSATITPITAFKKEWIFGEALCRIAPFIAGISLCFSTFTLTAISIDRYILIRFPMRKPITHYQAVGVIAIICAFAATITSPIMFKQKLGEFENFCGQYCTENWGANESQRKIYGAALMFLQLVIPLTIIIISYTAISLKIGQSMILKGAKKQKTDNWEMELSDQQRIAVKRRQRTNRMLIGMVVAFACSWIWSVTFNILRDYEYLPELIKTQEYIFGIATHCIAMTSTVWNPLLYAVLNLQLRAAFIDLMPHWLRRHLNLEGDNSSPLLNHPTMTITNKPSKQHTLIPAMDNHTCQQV
Procedure: as §1, with “(Tecan).” for “(Tecan). Data were analyzed with GraphPad Prism 5.03 and are shown as fold of basal or fold of forskolin in case of Gαi/o activity.”
as §2

NPR-11 = target: T3, NPR-11 (Caenorhabditis elegans, UniProt Q18179); experiment: cAMP reporter gene assay, Gi/o (inhibition of forskolin-induced cAMP), NPR-11; conditions: for cAMP, x-fold of forskolin (mean), NPR-11: 1 µM forskolin set to 1.00, mean of at least three independent experiments; for cAMP assay Gi, NPR-11: 4 h, lower = higher Gi/o activity, transfected HEK293, CRE-luciferase, mean of >=3 independent experiments
T3 construct: expressed in transfected cells; host or cells: HEK293, transient
T3 sequence (Q18179 1-402): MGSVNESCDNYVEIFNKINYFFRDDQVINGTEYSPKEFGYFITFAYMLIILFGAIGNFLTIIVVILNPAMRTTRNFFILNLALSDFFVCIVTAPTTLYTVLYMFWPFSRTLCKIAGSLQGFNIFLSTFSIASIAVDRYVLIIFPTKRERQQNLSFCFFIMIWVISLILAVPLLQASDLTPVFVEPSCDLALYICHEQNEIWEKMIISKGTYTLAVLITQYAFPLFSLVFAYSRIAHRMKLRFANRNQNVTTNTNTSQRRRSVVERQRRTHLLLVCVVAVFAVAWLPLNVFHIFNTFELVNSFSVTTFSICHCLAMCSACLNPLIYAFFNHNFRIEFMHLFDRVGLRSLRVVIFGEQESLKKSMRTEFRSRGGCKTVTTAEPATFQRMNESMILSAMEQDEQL
Procedure: as §1, §2

NPR-1 = target: T4, NPR-1 (Caenorhabditis elegans, UniProt Q18534); experiment: cAMP reporter gene assay, Gi/o (inhibition of forskolin-induced cAMP), NPR-1; design: host or cells: HEK293; conditions: for cAMP, x-fold of forskolin (mean), NPR-1: inhibition of cAMP production induced by 1 µM forskolin (set to 1.00), transiently transfected HEK293 cells, mean of at least three independent experiments; for cAMP, x-fold of forskolin (mean), NPR-1 / cAMP assay Gi, NPR-1: lower = higher Gi/o activity; for cAMP assay Gi, NPR-1: 4 h, transfected HEK293, CRE-luciferase, mean of >=3 independent experiments
T4 sequence (Q18534 1-457): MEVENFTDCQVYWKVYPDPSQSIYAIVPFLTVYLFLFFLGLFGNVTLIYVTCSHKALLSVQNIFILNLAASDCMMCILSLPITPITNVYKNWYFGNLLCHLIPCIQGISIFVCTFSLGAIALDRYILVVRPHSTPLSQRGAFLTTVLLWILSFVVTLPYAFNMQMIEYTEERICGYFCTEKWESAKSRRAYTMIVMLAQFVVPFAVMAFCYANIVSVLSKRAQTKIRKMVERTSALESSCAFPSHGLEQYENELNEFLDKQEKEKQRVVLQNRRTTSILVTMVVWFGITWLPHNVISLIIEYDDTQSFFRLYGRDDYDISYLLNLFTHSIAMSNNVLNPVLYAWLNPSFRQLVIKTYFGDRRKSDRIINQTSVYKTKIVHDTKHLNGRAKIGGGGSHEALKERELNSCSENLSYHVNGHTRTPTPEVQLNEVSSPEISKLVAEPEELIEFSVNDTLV
Procedure: as §1, §2

[1] = 0.1 µM peptide, transiently transfected HEK293 cells
[2] = 10 µM peptide, transiently transfected HEK293 cells
[3] = 0.1 µM peptide + 1 µM forskolin (set to 1.00)
[4] = 10 µM peptide + 1 µM forskolin (set to 1.00)
[5] = HEK293, read-out: Emax ± SEM [%], SEM

Substance	cAMP, x-fold of forskolin (mean), NPR-3 (NPR-3; 0.1 µM peptide)	cAMP, x-fold of forskolin (mean), NPR-3 (NPR-3; 10 µM peptide)	cAMP, x-fold of forskolin (mean), NPR-4b (NPR-4b; [1])	cAMP, x-fold of forskolin (mean), NPR-4b (NPR-4b; [2])	cAMP, x-fold of forskolin (mean), NPR-11 (NPR-11; [1])	cAMP, x-fold of forskolin (mean), NPR-11 (NPR-11; [2])	cAMP, x-fold of forskolin (mean), NPR-1 (NPR-1; 0.1 µM peptide)	cAMP, x-fold of forskolin (mean), NPR-1 (NPR-1; 10 µM peptide)	also measured
AGSDPNFLRF-NH2 [FLP-1-2, C. elegans FMRFamide-like peptide, C-terminally amidated, synthesized by SPPS]	0.87 x-fold of forskolin	1.02 x-fold of forskolin	0.81 x-fold of forskolin	0.42 x-fold of forskolin	0.92 x-fold of forskolin	0.72 x-fold of forskolin	0.98 x-fold of forskolin	0.89 x-fold of forskolin	–
APKPKFIRF-NH2 [FLP-5-1, C. elegans FMRFamide-like peptide, C-terminally amidated, synthesized by SPPS]	0.66 x-fold of forskolin	0.86 x-fold of forskolin	0.73 x-fold of forskolin	0.36 x-fold of forskolin	0.94 x-fold of forskolin	0.48 x-fold of forskolin	0.54 x-fold of forskolin	0.50 x-fold of forskolin	cAMP assay Gi, NPR-3 (NPR-3; [3]): 0.68 x-fold of forskolin; cAMP assay Gi, NPR-3 (NPR-3; [4]): 0.87 x-fold of forskolin; cAMP assay Gi, NPR-4b (NPR-4b; [3]): 0.75 x-fold of forskolin; cAMP assay Gi, NPR-4b (NPR-4b; [4]): 0.40 x-fold of forskolin; cAMP assay Gi, NPR-11 (NPR-11; [3]): 0.94 x-fold of forskolin; cAMP assay Gi, NPR-11 (NPR-11; [4]): 0.51 x-fold of forskolin; cAMP assay Gi, NPR-1 (NPR-1; [3]): 0.58 x-fold of forskolin; cAMP assay Gi, NPR-1 (NPR-1; [4]): 0.53 x-fold of forskolin
APLEPVYPGDNATPEQMAQYAADLRRYINMLTRPRY-NH2 [PP, human pancreatic polypeptide, reference compound]	1.02 x-fold of forskolin	1.25 x-fold of forskolin	1.05 x-fold of forskolin	1.14 x-fold of forskolin	0.37 x-fold of forskolin	0.14 x-fold of forskolin	1.21 x-fold of forskolin	1.49 x-fold of forskolin	–
ASPSFIRF-NH2 [FLP-4-2, C. elegans FMRFamide-like peptide, C-terminally amidated, synthesized by SPPS]	0.94 x-fold of forskolin	0.83 x-fold of forskolin	0.52 x-fold of forskolin	0.19 x-fold of forskolin	0.89 x-fold of forskolin	0.83 x-fold of forskolin	0.77 x-fold of forskolin	0.76 x-fold of forskolin	–
SEVPGVLRF-NH2 [FLP-18-5]	–	–	–	–	–	–	–	–	Emax (NPR-4b; NPR-4b, forskolin (1 µM) set to 1.00, lower values correspond to high Gi/o activity, transiently transfected HEK293 cells, mean ± SEM of at least three independent experiments, SEM): -0.6 ± 0.05%; Emax (NPR-11; [5]): -0.16 ± 0.08%; EC50 (NPR-11; SEM): 0.0794 µM; Emax (NPR-1; [5]): -0.53 ± 0.2%

Now from value to substance, other results behind:

cAMP, x-fold of forskolin (mean), NPR-3 (NPR-3; 0.1 µM peptide)	cAMP, x-fold of forskolin (mean), NPR-3 (NPR-3; 10 µM peptide)	cAMP, x-fold of forskolin (mean), NPR-4b (NPR-4b; [1])	cAMP, x-fold of forskolin (mean), NPR-4b (NPR-4b; [2])	cAMP, x-fold of forskolin (mean), NPR-11 (NPR-11; [1])	cAMP, x-fold of forskolin (mean), NPR-11 (NPR-11; [2])	cAMP, x-fold of forskolin (mean), NPR-1 (NPR-1; 0.1 µM peptide)	cAMP, x-fold of forskolin (mean), NPR-1 (NPR-1; 10 µM peptide)	Substance	also measured
0.77 x-fold of forskolin	0.85 x-fold of forskolin	0.85 x-fold of forskolin	0.79 x-fold of forskolin	0.77 x-fold of forskolin	0.21 x-fold of forskolin	0.72 x-fold of forskolin	0.82 x-fold of forskolin	APLEGFEDMSGFLRTIDGIQKPRF-NH2 [FLP-33, NPY-like C. elegans FLP with C-terminal RxRF/Ya signature]	Emax ± SEM [%] (NPR-11; NPR-11, forskolin (1 µM) set to 1.00, lower values correspond to high Gi/o activity, transiently transfected HEK293 cells, mean ± SEM of at least three independent experiments, SEM): -0.57 ± 0.06%
0.84 x-fold of forskolin	1.15 x-fold of forskolin	1.07 x-fold of forskolin	0.57 x-fold of forskolin	0.71 x-fold of forskolin	0.20 x-fold of forskolin	0.91 x-fold of forskolin	0.71 x-fold of forskolin	EASAFGDIIGELKGKGLGGRMRF-NH2 [FLP-27, NPY-like C. elegans FLP with C-terminal RxRF/Ya signature]	–
